Test results published in US12239629B2 (priority 2020, dated 2025).

Columns and labels:
SARS-CoV2 [1] = assay: Drug pretreatment of Vero E6 cells prior to SARS-CoV2 infection, indirect immunofluorescence; assay type: cell-based; conditions: pretreatment 18-24 hours prior to virus infection
Experimental: (§1) In carrying out the in vitro experiments, vero E6 cells (an African green monkey kidney cell line) were infected with SARS-CoV2 at a multiplicity of infection of 0.5 for 1 hour. The cells were washed with PBS and then incubated in OPTI-MEM (Invitrogen) medium with or without various concentrations of the following drug candidates: Artemether (from BiopharmaRx) Hydroxychloroquine (from Sigma Aldrich), Atazanavir (from Sigma Aldrich), and Efavirenz (from Sigma Aldrich), Fosamprenavir Calcium (from Sigma Aldrich), Saquinavir (from Sigma Aldrich) and Remdesivir (from AOBIOUS, INC., USA)
(§2) Immunofluorescence staining was performed with SARS-CoV2-specific hyperimmune mouse ascitic fluid (HMAF) followed by anti-mouse fluorescein-coupled antibody.
Experiments were carried out to determine the impact of artemether treatment on SARS-CoV2 infection. Permissive Vero E6 cells were pre-treated with various concentrations of artemether (0.1-50 μM) for 18-24 hours prior to virus infection. Cells were then infected with SARS-CoV2, and virus antigens were visualized by indirect immunofluorescence. For quantitative purposes, we counted the number of cells stained positive from three random locations on a slide. The average number of positively stained control cells was scored as 100% and was compared with the number of positive cells observed under various artemether concentrations. Pretreatment with 0.1, 1, 10, 20, 30, 40 and 50 μM artemether reduced infectivity by 4%, 12%, 32%, 45%, 63%, 92% and 100% respectively. Reproducible results were obtained from three independent experiments.

SARS-CoV2 [2] = assay: In-vitro experiments, time of drug addition relative to infection; assay type: cell-based; conditions: added between 3 hours pre-infection and 3 hours after infection
Experimental: Less inhibition was detected when the drug was added after 12 hours post-infection (Our observation was consistent with the report by Agostini et al regarding GS-5734 (remdesivir) (Agostini M L, Andres E L, Sims A C, Graham R L, Sheahan T P, Lu X, Smith E C, Case J B, Feng J Y, Jordan R, Ray AS, Cihlar T, Siegel D, Mackman R L, Clarke M O, Baric R S, Denison M R. 2018. Coronavirus susceptibility to the antiviral remdesivir (GS-5734) is mediated by the viral polymerase and the proofreading exoribonuclease. mBio 9:e00221-18. https://doi.org/10.1128/mBio.00221-18.).
as §1

[3] = Dissolution test of Artemether/Lumefantrine-Remdesivir soft gel capsule; assay type: physicochemical; conditions: 0.1 N. HCl with 3% Benzalkonium Chloride
From the text: The soft gel capsule of Artemether and Lumefantrine is comprised: Artemether 4 to 5% w/w, Lumefantrine 20-24% w/w, Remdesivir 18-20%, non-aqueous vehicle 15-20% w/w, preservative less than 1% w/w, viscosity imparting agent 15-20% w/w, suspending agent 1 to 5% w/w and emulsifying agent 1 to 3% w/w and a process to manufacture the said preparation comprising of the following steps as given in the above Patent. • (a) Preservatives and Solid Suspending Agents were milled and sifted. • (b) Non-aqueous vehicle, viscosity imparting agent and liquid suspending agents were filtered to remove the foreign particles • (c) Additional steps for mixing preservatives and suspending agents: • (i) Preservatives were dissolved in non-aqueous vehicle; • (ii) Emulsifying agents were warmed and/or melted and added into mixture in (i) above; • (iii) Viscosity imparting agent is added to mixture of (ii) above and the resultant mixture is stirred. • (iv) Suspending agent is added and mixed with the mixture in (iii) above; and • (v) The mixture of (a) above and (c) (iv) above was homogenized. • (d) The mixture in (v) above was the encapsulated in soft gelatin.
Drug dissolution testing is routinely used to provide critical in vitro drug release information for both quality control purposes to predict in vivo drug release profiles.
The media for dissolution test was 0.1 N. HCl with 3% Benzalkonium Chloride.

[4] = cited from earlier work
[5] = Artemether via nasal delivery system in vivo; conditions: administered locally via nasal delivery system in vivo
[6] = Peak Inhibitory Concentration (Threshold) after oral administration
Experimental: It is noted that the Peak Inhibitory Concentration (Threshold) of Artemether and Remdesivir were at 120 minutes after oral administration. The Peak Inhibitory Concentration (Threshold) of Lumefantrine was at 60 minutes after oral administration.

SARS-CoV2 [7] = assay: Drug added to Vero E6 cells immediately after SARS-CoV2 adsorption, indirect immunofluorescence after 24 hours; assay type: cell-based
Experimental: as §1, §2
The antiviral properties of artemether on SARS-CoV2 after the initiation of infection were studied. Vero E6 cells were infected with the virus and fresh medium supplemented with various concentrations of artemether was added immediately after virus adsorption. Infected cells were incubated for an additional 24 hours, after which the presence of virus antigens was analyzed by indirect immunofluorescence analysis. When artemether was added after the initiation of infection, there was a dramatic dose dependent decrease in the number of virus antigen-positive cells. […] A half-maximal inhibitory effect was estimated to occur at 16.5±1.0 μM artemether. […] (FIG. 2).

[8] = in vivo; cited from earlier work

Question: Which reduced infectivity (SARS-CoV2 [1]; 0.1 μM) does the source give for “(1R.4S,5R.8S.9R, 10S, 12R, 13R)-10-methoxy-1,5,9-trimethyl-11,14,15,16-tetraoxatetracyclo[10.3. 1.04, 13.08, 13]hexadecane [Artemether]” here?
Answer: Its reduced infectivity is 4%.

Question: What about the reduced infectivity (SARS-CoV2 [1]; 1 μM) of the same substance?
Answer: Its reduced infectivity is 12%.

Question: And the reduced infectivity (SARS-CoV2 [1]; 10 μM)?
Answer: The reduced infectivity was 32%.

Question: What about the reduced infectivity (SARS-CoV2 [1]; 20 μM) of the same substance?
Answer: The reduced infectivity was 45%.

Question: What about the reduced infectivity (SARS-CoV2 [1]; 30 μM) of the same substance?
Answer: Its reduced infectivity is 63%.

Question: What about the reduced infectivity (SARS-CoV2 [1]; 40 μM) of the same substance?
Answer: Its reduced infectivity is 92%.

Question: And the reduced infectivity (SARS-CoV2 [1]; 50 μM)?
Answer: The reduced infectivity was 100%.

Question: And the “inhibition by time of addition” value (SARS-CoV2 [2])?
Answer: The value was “maximal inhibition”.

Question: What about the “% Cumulative Drug Release” value ([3]; 60 minute time frame) of the same substance?
Answer: Its value is 92.3%.

Question: What about the “% of Drug Release in a Dissolution Test” value ([3]; sample time 30 minute) of the same substance?
Answer: The value was 47.3%.

Question: And the “% of Drug Release in a Dissolution Test” value ([3]; sample time 60 minute)?
Answer: Its value is 72.25%.

Question: And the “% of Drug Release in a Dissolution Test” value ([3]; sample time 90 minute)?
Answer: Its value is 88.7%.

Question: What about the “% of Drug Release in a Dissolution Test” value ([3]; sample time 120 minute) of the same substance?
Answer: The value was 93.8%.

Question: And the “solubility in water (words)” value [4]?
Answer: The value was “sparingly soluble”.

Question: And the “absorption and bioavailability, nasal vs systemic administration” value [5]?
Answer: Its value is “adsorbed quickly with more bioavailability”.

Question: What about the “time of Peak Inhibitory Concentration (Threshold)” value [6] of the same substance?
Answer: Its value is 120 min.

Question: And the inhibition (SARS-CoV2 [7]; 40-100 μM concentrations, added after the initiation of infection)?
Answer: The inhibition was 71-96%.

Question: And the reduced the infection (SARS-CoV2 [7]; approximately 10 μM added immediately after virus adsorption, 24 hours)?
Answer: Its reduced the infection is 40%.

Question: What about the IC50 (SARS-CoV2 [7]; drug added immediately after virus adsorption, Vero E6 cells, estimated, read-out: half-maximal inhibitory effect) of the same substance?
Answer: The IC50 was 16.5 ± 1 µM.

Question: With Chitosan as the substance, how does the LD50 [8] read?
Answer: The LD50 was > 4000 mg/kg.
